Legend:
intracellular c-di-GMP = experiment: Intracellular c-di-GMP, direct, LC-MS/MS quantification; assay type: cell-based, Pseudomonas aeruginosa; conditions: FIG. 7
Text: The intracellular c-di-GMP may control the conversion of bacterial lifestyle between plankton and biofilm. In order to analyze an effect of the coumarin-chalcone compound C9 on a concentration of the intracellular c-di-GMP, direct and indirect methods were used to measure the level of c-di-GMP in Pseudomonas aeruginosa.
C-di-GMP was directly extracted from PAO1 strain grown with or without the coumarin-chalcone compound C9. The intracellular c-di-GMP was directly measured by LC-MS/MS quantification.

[1] = tested on: Pseudomonas aeruginosa PAO1; experiment: Growth curve analysis (OD600); assay type: cell-based; conditions: 5 mM C9, LB, 37° C., 24 h
Experimental: Pseudomonas aeruginosa PAO1 (optical density OD600≈1.5) was cultured in LB liquid medium overnight, and 1% inoculation amount of the bacterial solution was inoculated into a fresh LB liquid medium. Two equal amounts of bacterial solution with and without 5 mM coumarin-chalcone compound C9 were cultured in a shaking incubator with 200 rpm at 37° C. for 24 h. OD value of the bacterial solution at 600 nm was measured every hour with a spectrophotometer to trace bacterial growth.

[2] = tested on: Psl polysaccharide production; experiment: Psl immunoblot analysis; assay type: cell-based, Pseudomonas aeruginosa; conditions: C9 5 mM, Jensen media, 37° C., 24 hours
Experimental: Pseudomonas aeruginosa PAO1 was inoculated in Jensen media at 37° C. for 24 hours with shaking and treated with the coumarin-chalcone compound C9 (5 mM) or DMSO (5 mM), respectively. OD600 values of the overnight cultured bacterial solutions were measured, and a bacterial solution with an OD (optical density) of 10 was collected. The bacterial solution with the OD of 10 was a bacterial solution whose OD600 was 2 and the collected volume was 5 mL. The bacterial solution was centrifuged at 13000 r/min for 5 min and the corresponding supernatant was discarded. The obtained precipitate was dissolved in 100 μL of 0.5 M EDTA. Then the EDTA solution was boiled at 100° C. for 5 min and centrifuged, and the precipitate was discarded. The obtained supernatant was treated with proteinase K (final concentration, 0.5 mg/mL) for 1 h at 60° C., followed by inactivation of proteinase K for 30 min at 80° C. to obtain a polysaccharide extract. A volume of 3 μL of polysaccharide extract was spotted onto a nitrocellulose membrane and dried. After washing with TBST for 3 times, a blocking was done with 10% skimmed milk at room temperature for 1 h. The anti-Psl antibody (i.e., a primary antibody) (1:25,000 dilution) was added and then solution was treated at 25° C. for 1 h. […] Western blot data was quantitatively analyzed using Image Lab™ 5.1 software.

pslA::lacZ = pslA::lacZ transcription fusion (β-galactosidase activity); assay type: cell-based, Pseudomonas aeruginosa; conditions: FIG. 5
Experimental: 1% inoculation amount of overnight cultured Pseudomonas aeruginosa (pslA::lacZ mutant strain) were respectively inoculated in Jensen media with and without coumarin-chalcone compounds C1-C12, and incubated at 37° C. until OD600 reached to 0.5. Bacteria from 1.5 ml culture aliquots were resuspended in 200 μl Z-buffer and frozen/thawed three times to lyses bacteria. Cell lysates were assayed for both β-galactosidase activities as well as for total proteins by BCA assay (Pierce, USA). All β-galactosidase activity units were normalized by total protein per ml aliquot.
The units of β-galactosidase activity may be determined according to Equation (1) as follows: Miller units=1000×(OD420−1.7×OD550)/(t×V×OD600) (1) where t denotes a time (unit: min), V denotes the volume (unit: mL).
About 500 bp of DNA fragments upstream of ATG start codon of pslA gene were cloned into a polyclonal site of mini-CTX lacZ vector (note that the selected promoter fragment cannot affect the frameshift mutation). A recombinant plasmid (e.g., pTH2) was transferred into Escherichia coli S17-1λ pir. Then activated PAO1 was inoculated into 5 mL of LBNS medium, and S17-1/pTH2 strain was inoculated into 5 mL of LB medium with tetracycline (Tet) ([…]), and both cultured overnight at 37° C. with 200 rpm. […]

COc1cccc(/C=C/C(=O)c2cc3ccccc3oc2=O)c1 [Compound C9]
reduction on the c-di-GMP concentration (intracellular c-di-GMP): 2 fold
effect on growth of Pseudomonas aeruginosa PAO1 (OD600) [1]: no significant effect
reduction of Psl production [2]: 60%
production of Psl at the transcription level (pslA::lacZ) (pslA::lacZ): affected the production of Psl at the transcription level

Reference: patent publication US11950594B2, “Methods and compositions for inhibiting formation of biofilms” (INSTITUTE OF MICROBIOLOGY, CHINESE ACADEMY OF SCIENCES, priority 2019, dated 2024)
